Experimental data from ChEMBL document CHEMBL6103622 (J Med Chem, 2025).
Calls of active or inactive are those of the source. The rule behind the calls is not given here.

Key:
[1] = tested on: BMDM; test: Induction of repolarization of M2 like macrophage into M1 phenotype in female C57BL/6 mouse BMDM cells assessed as decrease in Mrc1 mRNA expression at 10 to 100 nM stimulated with mouse IL4/IL-13 for 24 hrs followed by compound addition and measured after 24 hrs by qPCR analysis; assay type: functional, cell-based; conditions: dose 10-100 nM
[2] = AUC (0 to t) in Sprague-Dawley rat at 10 mg/kg, po; assay type: ADME, organism-based; conditions: in vivo
[3] = tested on: MC-38; test: Antitumor activity against mouse MC38 cells allografted in C57BL/6 mouse model assessed as upregulation of Il1 mRNA expression in tumor at 10 to 20 mg/kg, ip administered once daily for 14 days by qPCR analysis; assay type: functional, organism-based; conditions: dose 10-20 mg/kg, time 14.0 day

With `Cc1nc(NC(=O)N[C@@H]2CCCC[C@H]2O)ccc1Oc1c[nH]c2ncc(Cl)cc12` the Activity [1] was “Active”, the AUC(0-t) [2] was 4170 ng·h/mL and the Activity [3] was “Active”.
